Columns and labels:
Prothrombin = Prothrombin (Homo sapiens, UniProt P00734); assay: Inhibitory activity against thrombin
Coagulation factor X = Coagulation factor X (Homo sapiens, UniProt P00742); assay: Inhibitory activity against coagulation factor X
Coagulation factor X, sequence (P00742 41-179 limits assumed): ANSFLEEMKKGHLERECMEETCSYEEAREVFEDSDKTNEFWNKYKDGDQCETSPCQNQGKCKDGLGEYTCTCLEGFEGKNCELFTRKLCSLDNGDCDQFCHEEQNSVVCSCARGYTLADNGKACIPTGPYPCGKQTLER
Coagulation factor X, sequence (P00742 235-488 limits assumed): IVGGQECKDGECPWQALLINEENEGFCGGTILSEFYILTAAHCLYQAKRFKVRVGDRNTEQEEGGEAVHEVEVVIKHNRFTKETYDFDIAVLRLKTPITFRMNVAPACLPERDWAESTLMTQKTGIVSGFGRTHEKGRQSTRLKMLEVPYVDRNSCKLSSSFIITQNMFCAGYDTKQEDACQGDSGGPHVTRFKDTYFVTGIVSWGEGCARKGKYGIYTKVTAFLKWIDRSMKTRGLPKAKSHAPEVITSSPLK

SMILES | IC50 (Prothrombin) | IC50 (Coagulation factor X)
CC(C)/N=C1\C=C(O)C(c2ccccc2)=C(CC(=O)NCc2ccc(C(=N)N)cc2)C1=O | > 30 µM | –
CC(C)Nc1ccc(-c2cccc(N)c2)c(CC(=O)NCc2ccc(C(=N)N)cc2)c1F | – | > 30 µM

From ChEMBL document CHEMBL1136318, “Synthesis and X-ray crystal structures of substituted fluorobenzene and benzoquinone inhibitors of the tissue factor VIIa complex” (Bioorg Med Chem Lett, 2003)
